Results on two compounds are retold here after patent EP0573682A1, “Tea polyphenols as anti-hyperglycemic agents” (MITSUI NORIN CO., LTD., priority 1992, dated 1993).

One series can be described thus: Acute toxicity. The class given is in vivo, mice. The settings on record: mouse, in vivo, ip; administered intraperitonealy; 5 week old female ICR mice; read-out: LD₅₀ after one week. The procedure: (§1) (-)Epigallocatechin gallate was tested with respect to its acute toxicity. Where (-)epigallocatechin gallate was perorally administered to 6 week ICR male mice, LD₅₀ after one week was 2314mg/kg. Where (-)epigallocatechin was administered intraperitonealy to 5 week old female ICR mice, LD₅₀ after one week was 150mg/kg.

The subject of another series is ICR mice. Put plainly: Acute toxicity. The class given is in vivo. The settings on record: perorally administered; 6 week ICR male mice; 10080 min. As for the experimental part:
as §1

With `Oc1cc(O)c2c(c1)O[C@H](c1cc(O)c(O)c(O)c1)[C@H](O)C2` [(-)epigallocatechin, (-) Epigallocatechin], in the series “Acute toxicity”, the LD50 at 168 h came out at 150 mg/kg.
On to `O=C(O[C@@H]1Cc2c(O)cc(O)cc2O[C@@H]1c1cc(O)c(O)c(O)c1)c1cc(O)c(O)c(O)c1` [(-)epigallocatechin gallate, (-) Epigallocatechin gallate], for which, in the series with ICR mice, the “LD₅₀ after one week” value came to 2314 mg/kg.
